The values below are quoted from earlier work in article PMC4207555 (Drug Design, Development and Therapy, 2014).

In data set [1] the test system is mCRPC that had progressed on previous docetaxel-based therapy.
Data set [2] concerns tubulin.
For data set [3] the following is noted: rats; ref Sanofi, data on file, 2013.
The subject of data set [4] is HID28.
Data set [5] has as its system microtubules. The note with it: read-out: stabilization of microtubules against cold-induced depolymerization (concentration producing 50% cell killing).
Data set [6] has as its system P-glycoprotein-expressing cell lines bearing acquired resistance. The note with it: range across P-glycoprotein-expressing cell lines.
The conditions of data set [7]: humans, over 7 days.
The conditions of data set [8]: Phase III clinical studies in a number of tumor types.

In the case of `O=C1c2c(O)ccc(O)c2C(=O)c2c(NCCNCCO)ccc(NCCNCCO)c21` [mitoxantrone, reference compound], in data set [1], the prostate-specific antigen response is given as 17.8% and the “rate of objective tumor response” value was 4.4%. In addition, in data set [1] (plus prednisone/prednisolone), the median overall survival is 12.7 months and the median progression-free survival was 1.4 months.

With `CC(=O)O[C@@]12CO[C@@H]1C[C@H](O)[C@@]1(C)C(=O)[C@H](O)C3=C(C)[C@@H](OC(=O)[C@H](O)[C@@H](NC(=O)OC(C)(C)C)c4ccccc4)C[C@@](O)([C@@H](OC(=O)c4ccccc4)[C@H]21)C3(C)C` [Docetaxel, reference compound], the logP was 3.2. In addition, the “lag time to 50% aggregation (reduction in lag time for tubulin assembly)” value in [2] is 0 to 0.1 µmol/L. The “HNLD as single dose” value in data set [3] is 10 mg/kg. Moreover, in data set [4] (HID28, 20 mg/kg, Day 35), the “percentage tumor volume change (treated/control mean tumor volume)” value was 16.7%. For the same compound, in data set [5], the IC50 is 100 to 250 nM. Also, the Resistance factors in data set [6] is 5–59. For the same compound, in [7], the “administered dose of 14C excreted in the feces” value is reported as 80% and the “administered dose of 14C recovered in the urine” value is recorded as “approximately 5%”. Further, in data set [8], the “incidence of grade 3/4 sensory neuropathy” value is reported as 0%–7.

Regarding `CC(=O)O[C@H]1CC[C@@]2(C)C(=CC[C@@H]3[C@@H]2CC[C@]2(C)C(c4cccnc4)=CC[C@@H]32)C1` [abiraterone acetate, reference compound], in data set [4] (HID28, 50 mg/kg orally daily for 21 days), the antitumor activity entry was “No antitumor activity”.

For orientation: logP means a log measure of how a compound divides between an organic and an aqueous phase.
